Data on 2 molecules can be found in ChEMBL document CHEMBL3865848, “Macrocyclic Inhibitors of ERK2 Kinase” (ACS Med Chem Lett, 2016).

As usually defined, the IC50 is the point on the concentration scale where inhibition reaches its midpoint. A higher IC50 goes with weaker potency.

For the experiment, the target named is Mitogen-activated protein kinase 1 (Homo sapiens, UniProt P28482).
Chain of Mitogen-activated protein kinase 1 (P28482 whole entry): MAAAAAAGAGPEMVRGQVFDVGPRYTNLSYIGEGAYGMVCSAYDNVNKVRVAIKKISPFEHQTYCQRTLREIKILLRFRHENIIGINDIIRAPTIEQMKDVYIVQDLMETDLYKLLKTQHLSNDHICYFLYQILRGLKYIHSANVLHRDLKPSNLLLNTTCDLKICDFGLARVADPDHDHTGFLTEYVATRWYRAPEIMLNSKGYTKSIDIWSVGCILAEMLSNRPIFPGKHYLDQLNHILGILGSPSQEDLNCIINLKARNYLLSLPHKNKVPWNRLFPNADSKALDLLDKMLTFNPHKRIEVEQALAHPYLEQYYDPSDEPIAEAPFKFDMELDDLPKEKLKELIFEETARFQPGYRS

Description: Inhibition of human activated ERK2 assessed as reduction in phosphorylation activity preincubated for 15 mins followed by addition of IMAP peptide as substrate and ATP measured after 60 mins by fluorescence polarization method

`CCn1ncc2cc3nc(c21)CCCO[C@H](O)[C@H](c1ccccc1)NC(=O)N3` yielded an IC50 of 24.3 nM.
Then `CCn1ncc2cc3nc(c21)CCCO[C@@H](O)[C@H](c1ccccc1)NC(=O)N3`, with 118 nM.
